Results published in US9340577B2, “HLA binding motifs and peptides and their uses” (priority 1992, dated 2016).
No end group written: not given here.

Key:
[1] = system: HLA-A24; assay type: binding, human
[2] = target: HLA-A*0201 (HLA-A2.1) (Homo sapiens, UniProt P04439, D140Y/D185E/D98H/E176V/E277Q/G131W/G231S/I119V/I121R/I166T/I218V/L300P/L318F/N151K/N90K/P208A/P217A/Q86G/Q94H/R138H/R169H/T345S); experiment: biochemical; assay type: binding
[3] = target: A*2902 (Homo sapiens, UniProt P04439, A270S/D101N/D185E/E176V/E277Q/E87Q/F33T/G231S/H175R/I121M/I218V/I322F/K168Q/L300P/L318F/M331R/P208A/P217A/Q86L/T323A/T345S/V100A/V358M); experiment: biochemical; assay type: binding
[4] = target: HLA-A1 (A*0101) (Homo sapiens, UniProt P04439, A114D/A174V/A182V/D101N/D185E/E176A/E190D/L180R/Q94H/R68K/S129P/T187R/V100A/V91M/W191G); experiment: biochemical; assay type: binding
[5] = target: A*3002 (Homo sapiens, UniProt P04439, D101N/D140H/D185E/E176R/F33S/G80R/H175R/K168Q/Q94H/R138E/R41S/V100E); experiment: biochemical; assay type: binding
A*3002, sequence (P04439 whole entry, looked up, the tested form may be a part, stated change not applied): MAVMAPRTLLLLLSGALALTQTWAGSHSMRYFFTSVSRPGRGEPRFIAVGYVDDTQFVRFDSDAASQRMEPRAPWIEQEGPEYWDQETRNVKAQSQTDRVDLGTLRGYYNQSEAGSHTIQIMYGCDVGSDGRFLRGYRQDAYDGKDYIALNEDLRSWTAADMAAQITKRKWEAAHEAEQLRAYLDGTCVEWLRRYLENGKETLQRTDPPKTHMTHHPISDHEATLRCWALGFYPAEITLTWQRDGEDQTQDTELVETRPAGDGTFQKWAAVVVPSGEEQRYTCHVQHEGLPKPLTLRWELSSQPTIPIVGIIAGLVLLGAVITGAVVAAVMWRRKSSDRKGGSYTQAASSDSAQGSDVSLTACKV

Row | Sequence | binding to HLA-A24 (column 6; no allele head shown for these rows) [1] | binding class for HLA-A24 [1] | binding to HLA-A2.1 (column 3; no allele head shown for these rows) [2] | IC50 [3] [µM] | IC50 [4] [µM] | IC50 [5] [µM]
1 | KAGLLIIVL | 0 | – | – | – | – | –
2 | KALKFYSKI [Peptide E6-72] | – | high affinity (key: high affinity: >0.1; intermediate affinity: 0.1-0.01; low affinity: 0.01-0.001) | – | – | – | –
3 | KVADLVGFL | 0 | – | 0.0091 | – | – | –
4 | KVAELVHFL | 0.0005 | – | 0.073 | – | – | –
5 | LAETSYVKVL | <0.0002 | – | 0 | – | – | –
6 | LFYSKVRKY [Peptide 78.0384] | – | – | – | 0.201 | > 20 | 0.035
7 | LKEYVLDLY [Peptide 78.0250] | – | – | – | 3.31 | > 20 | 0.076
8 | LTEITGYLY [Peptide 9012.0126] | – | – | – | 0.025 | 0.016 | 0.151
9 | LVFGIELMEV | 0 | – | – | – | – | –
10 | MLESVIKNYK | 0 | – | 0 | – | – | –
11 | QAATSSSSPL | <0.0002 | – | 0 | – | – | –
12 | QAEPDRAHY [Peptide 78.0244] | – | – | – | > 20 | 3.27 | 0.016
13 | QIMPKTGFLII | 0.0030 | – | 0.0003 | – | – | –
14 | RAHYNIVTF [Peptide E7-49] | – | intermediate affinity (key: high affinity: >0.1; intermediate affinity: 0.1-0.01; low affinity: 0.01-0.001) | – | – | – | –
15 | RFHNIGGRW [Peptide 78.0369] | – | – | – | 12.2 | > 20 | 0.013
16 | RFHNIMGRW [Peptide 78.0381] | – | – | – | > 20 | > 20 | 0.027
17 | RTDSVILNVLY [Peptide 9012.0162] | – | – | – | 0.954 | 0.014 | 0.0085
18 | SAYGEPRKL | <0.0002 | – | 0.0002 | – | – | –
19 | SAYGEPRKLL | 0.0008 | – | 0 | – | – | –
20 | SLQLVFGI | 0 | – | 0.0094 | – | – | –
21 | SLQLVFGIDV | 0.0001 | – | 0.0047 | – | – | –
22 | VADLVGFLL | 0.0007 | – | 0.0011 | – | – | –
23 | VADLVGFLLL | 0.0003 | – | 0.0008 | – | – | –
24 | VAELVHFLL | 0.039 | – | 0 | – | – | –
25 | VAELVHFLLL | 0.0018 | – | – | – | – | –
26 | VIPHAMSSCGV | 0 | – | 1.4 | – | – | –
27 | VLGTLEEV | 0 | – | 0.0088 | – | – | –
28 | VLVTCLGL | 0 | – | 0.0010 | – | – | –
29 | VTETLEEITGY [Peptide 9012.0178] | – | – | – | > 20 | 0.02 | 11.3
30 | YLEYGRCRTV | 0 | – | 0.0097 | – | – | –
